# Source: patent US20240316207A1, “SHP2 INHIBITOR, PHARMACEUTICAL COMPOSITION COMPRISING SAME AND APPLICATION THEREOF” (BEIJING TIDE PHARMACEUTICAQL CO., LTD., priority 2021, published 2024)
# Target: T1, SHP2 (Homo sapiens, UniProt Q06124)
# T1 construct: endogenous in cells; host or cells: MV411 (MV4-11) leukemia cells
# T1 sequence (Q06124 1-593): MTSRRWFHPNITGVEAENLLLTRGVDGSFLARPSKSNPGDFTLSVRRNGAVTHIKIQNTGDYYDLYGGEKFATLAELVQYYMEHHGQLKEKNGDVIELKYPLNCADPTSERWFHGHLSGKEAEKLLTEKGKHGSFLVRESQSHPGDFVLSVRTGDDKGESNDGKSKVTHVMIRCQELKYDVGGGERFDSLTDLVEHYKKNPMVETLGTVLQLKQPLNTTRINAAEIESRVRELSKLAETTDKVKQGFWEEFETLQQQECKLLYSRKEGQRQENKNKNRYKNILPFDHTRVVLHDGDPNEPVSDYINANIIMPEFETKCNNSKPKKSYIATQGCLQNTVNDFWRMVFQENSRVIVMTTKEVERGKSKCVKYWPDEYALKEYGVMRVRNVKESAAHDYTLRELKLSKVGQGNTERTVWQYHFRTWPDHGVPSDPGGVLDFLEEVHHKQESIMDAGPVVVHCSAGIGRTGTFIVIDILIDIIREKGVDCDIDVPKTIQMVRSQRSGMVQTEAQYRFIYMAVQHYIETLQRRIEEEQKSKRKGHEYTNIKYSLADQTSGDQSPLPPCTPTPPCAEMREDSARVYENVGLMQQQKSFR
# Experiment: SHP2 degradation in MV411 cells (Western blot, SHP-2 antibody)
# Type: cell-based
# Settings: MV 411 cells, 24 hours with compound, SHP2 protein level by Western blot
# From the text: Reagent: complete DMEM medium, Gibco products. Fetal bovine serum, manufactured by ThermoFisher. Trypsin, manufactured by ThermoFisher. The SHP-2 antibody is produced by CST.
# Cell line, MV 411, the blast cells of patients with bi-phenotypic B-myelomonocytic leukemia, was established by Rovera.
# Measuring method: took the cells growing in the logarithmic phase, collected and suspended the cells in DMEM containing 10% fetal calf serum, gently blowed and beated the cells into single cell suspension by using a pipette, and counted the living cells under a microscope. […] Then cultured for 24 hours. All cells were collected and washed with PBS, lysed with RIPA lysate and collected into a 1.7 ml tube. […] metal bath for 5 minutes to fully denature the protein. 100V constant voltage electrophoresis after Western condensation and loading, stopped when bromophenol blue band reached the end point. The cellulose acetate membrane is transferred by a wet method, 45 minutes at a constant flow of 300-500 mA, 5% BSA is used for blocking for 1-2 hours at room temperature. Primary antibody of 1:500-1:8000 were used for incubation at 25° C. for 40 minutes and then washed three times. Secondary antibody was used for incubation for 15-40 min at room temperature. The proteins were detected using ultrasensitive ECL luminophores such as Enlight, using an X-Ray film automatic developing machine. See the statistical tables below, and FIGS. 1 and 2 for test results.
# Effective Concentration of the Compound of the Invention in the Cell Line for Inhibiting SHP2
row,DC50,SMILES
1,52 nM,CCOc1cc(O)c(C/C=C/c2ccc(N3CCN(C(=O)CCCCCCC(=O)Nc4cccc5c4C(=O)N(C4CCC(=O)NC4=O)C5=O)CC3)cc2Cl)cc1CN1CCC=C(n2c(=O)[nH]c3ccccc32)C1 (stereo not shown) [TDC.2003]
2,16 nM,CCOc1cc(O)c(C(=O)/C=C/c2ccc(N3CCN(CCOCCOCCOc4cccc5c4C(=O)N(C4CCC(=O)NC4=O)C5=O)CC3)cc2Cl)cc1CN1CCCC(n2c(=O)[nH]c3ccccc32)C1 (stereo not shown) [TDC.2009]
3,203 nM,C=C/C(OCCOCCOCCN1CCN(c2ccc(/C=C/C(=O)c3cc(CN4CCC[C@H]4COC)c(OCC)cc3O)c(Cl)c2)CC1)=C1\C(=C)C(=O)N(C2CCC(=O)NC2=O)C1=O (stereo partly shown) [TDC.2013]
4,10 nM,CCOc1cc(O)c(C(=O)/C=C/c2ccc(N3CCN(CCOCCOCCOc4cccc5c4C(=O)N(C4CCC(=O)NC4=O)C5=O)CC3)cc2Cl)cc1CN1CCC[C@@H]1CO (stereo partly shown) [TDC.2012]
5,183 nM,CCOc1cc(O)c(C(=O)/C=C/c2ccc(NCCOCCOCCOc3cccc4c3C(=O)N(C3CCC(=O)NC3=O)C4=O)cc2Cl)cc1CN1CCC[C@H]1COC (stereo partly shown) [TDC.2017]
6,81 nM,CCOc1cc(O)c(C(=O)/C=C/c2ccc(N3CCN(CCOCCOCCOc4cccc5c4C(=O)N(C4CCC(=O)NC4=O)C5=O)CC3)cc2Cl)cc1CN1CCC=C(n2c(=O)[nH]c3ccccc32)C1 (stereo not shown) [TDC.2010]
7,142 nM,CCOc1cc(O)c(C(=O)/C=C/c2ccc(NCCOCCOCCOCCOc3cccc4c3C(=O)N(C3CCC(=O)NC3=O)C4=O)cc2Cl)cc1CN1CCC[C@H]1C(N)=O (stereo partly shown) [TDC.2018]
8,128 nM,CCOc1cc(O)c(C(=O)/C=C/c2ccc(NCCOCCOCCOCCNc3cccc4c3C(=O)N(C3CCC(=O)NC3=O)C4=O)cc2Cl)cc1CN1CCC[C@H]1C(N)=O (stereo partly shown) [TDC.2001]
9,336 nM,CCOc1cc(O)c(C(=O)/C=C/c2ccc(NCCOCCOCCNc3cccc4c3C(=O)N(C3CCC(=O)NC3=O)C4=O)cc2Cl)cc1CN1CCNCC1 (stereo not shown) [TDC.2002]
10,321 nM,CCOc1cc(O)c(C(=O)/C=C/c2ccc(NCCOCCOCCNc3cccc4c3C(=O)N(C3CCC(=O)NC3=O)C4=O)cc2Cl)cc1CN1CCN(C)CC1 (stereo not shown) [TDC.2005]
11,445 nM,CCOc1cc(O)c(C(=O)/C=C/c2ccc(NCCOCCOCCNc3cccc4c3C(=O)N(C3CCC(=O)NC3=O)C4=O)cc2Cl)cc1CN1CCOCC1 (stereo not shown) [TDC.2006]
12,215 nM,CCOc1cc(O)c(C(=O)/C=C/c2ccc(NCCOCCOCCNc3cccc4c3C(=O)N(C3CCC(=O)NC3=O)C4=O)cc2Cl)cc1CN1CCC[C@H]1COC (stereo partly shown) [TDC.2008]
13,13 nM,CCOc1cc(O)c(C(=O)/C=C/c2ccc(N3CCN(CCOCCOCCOc4cccc5c4C(=O)N(C4CCC(=O)N(COC(=O)C(C)(C)C)C4=O)C5=O)CC3)cc2Cl)cc1CN1CCCC(n2c(=O)[nH]c3ccccc32)C1 (stereo not shown) [TDC. 2020]
14,125 nM,CCOc1cc(O)c(C(=O)/C=C/c2ccc(NCCOCCOCCNc3cccc4c3C(=O)N(C3CCC(=O)NC3=O)C4=O)cc2Cl)cc1CN1CCC[C@H]1CO (stereo partly shown) [TDC.2007]
15,356 nM,CCOc1cc(O)c(C(=O)/C=C/c2ccc(NCCOCCOCCNc3cccc4c3C(=O)N(C3CCC(=O)N(C(C)OC(=O)CC)C3=O)C4=O)cc2Cl)cc1CN1CCN(C)CC1 (stereo not shown) [TDC.2016]
16,120 nM,CCOc1cc(O)c(C/C=C/c2ccc(N3CCN(C(=O)CCCCCC(=O)Nc4cccc5c4C(=O)N(C4CCC(=O)NC4=O)C5=O)CC3)cc2Cl)cc1CN1CCCC(n2c(=O)[nH]c3ccccc32)C1 (stereo not shown) [TDC.2004]
17,138 nM,CCOc1cc(O)c(C(=O)/C=C/c2ccc(N3CCN(CCOCCOCCOc4cccc5c4C(=O)N(C4CCC(=O)NC4=O)C5=O)CC3)cc2Cl)cc1CN1CCC[C@H]1C(N)=O (stereo partly shown) [TDC.2011]
18,97 nM,CCOc1cc(O)c(C(=O)/C=C/c2ccc(NCCOCCOCCCOCCNc3cccc4c3C(=O)N(C3CCC(=O)NC3=O)C4=O)cc2Cl)cc1CN1CCC=C(n2c(=O)[nH]c3ccccc32)C1 (stereo not shown) [TDC.2015]
19,102 nM,CCOc1cc(O)c(C(=O)/C=C/c2ccc(N3CCN(CCOCCOCCOCCNc4cccc5c4C(=O)N(C4CCC(=O)NC4=O)C5=O)CC3)cc2Cl)cc1CN1CCCC(n2c(=O)[nH]c3ccccc32)C1 (stereo not shown) [TDC.2014]
